“Also recorded” adds a separate entry of the source.
Assays:
microorganisms [1] = assay: Targeting peptide binding to target microorganisms (Tables 3, 10, 12); conditions: microorganism(s) the targeting peptide binds; binding in aqueous buffers varied with peptide solubility, preferably 1x PBS
microorganisms [2] = assay: Morphology, biofilm and growth disrupting peptides (Table 5); type: cell-based; parameters: key: A: Peptide aggregates; B: Less hyphal formation; Clumps; Diffuse clumps and small polyps; F: Diffuse growth; H: Thin; I: Growth inhibition; Microcolony formation; Rippled; Small polyps; Thick; W: Halo formation on top, microlonies on bottom
Excerpt: In certain embodiments peptides that induce alterations in phenotype or other biological activities can also be used as antimicrobial effector moieties.

microorganisms [3] = assay: Peptide activities: targeting/binding, antimicrobial, growth or phenotype altering (Tables 7, 8); type: cell-based; conditions: peptides having multiple activities

Row | Molecule | Target(s) (microorganisms [1]) | Organism, effect (microorganisms [2]; F. nucleatum) | Organism, effect (microorganisms [2]; S. mutans) | Activities (microorganisms [3]) | further results
1 | PF-C075: peptide having multiple activities (KALVISVFAIVFSIIFVKFFYWRDKK; Peptide with targeting and/or antimicrobial activity) | A. naeslundii; also recorded: F. nucleatum; also recorded: P. gingivalis; also recorded: S. mutans; also recorded: T. denticola | F. nucleatum (T) | S. mutans (F) | G B | Organism, effect (microorganisms [2]; P. gingivalis): P. gingivalis (R)
2 | PF-C084: peptide having multiple activities (FFSVIFLFGLNYLICNSPLFNILR; Peptide with targeting and/or antimicrobial activity) | A. naeslundii; also recorded: F. nucleatum; also recorded: P. gingivalis; also recorded: S. mutans | F. nucleatum (T) | S. mutans (F) | G B | Organism, effect (microorganisms [2]; P. gingivalis): P. gingivalis (R)
3 | PF-C088: peptide having multiple activities (DIANNILNSVSERLIIA; Peptide with targeting and/or antimicrobial activity) | A. naeslundii; also recorded: F. nucleatum; also recorded: P. gingivalis; also recorded: S. mutans; also recorded: T. denticola | F. nucleatum (H) | S. mutans (I) | G B | Organism, effect (microorganisms [2]; P. gingivalis): P. gingivalis (R)
4 | PF-C131: peptide having multiple activities (chain 1 QWIVAKREIRMHIYCHISVIHVIIFFG; chain 2 QWIVAKREIRMHIYCHISVIHVIIFFG; Peptide with targeting and/or antimicrobial activity) | A. naeslundii; also recorded: F. nucleatum; also recorded: P. gingivalis; also recorded: S. mutans | F. nucleatum (T) | S. mutans (F) | G B | 
5 | PF-C136: peptide having multiple activities (chain 1 LILSYQASVYPLFAYLCQQKDY; chain 2 LILSYQASVYPLFAYLCQQKDY; Peptide with targeting and/or antimicrobial activity) | A. naeslundii; also recorded: F. nucleatum; also recorded: P. gingivalis; also recorded: S. mutans; also recorded: T. denticola | F. nucleatum (C) |  | G B | Organism, effect (microorganisms [2]; P. gingivalis): P. gingivalis (R)
6 | PF-C137: peptide having multiple activities (chain 1 QRMYWFKRGFETGDFSAGDTFAELK; chain 2 QRMYWFKRGFETGDFSAGDTFAELK; Peptide with targeting and/or antimicrobial activity) | A. naeslundii; also recorded: F. nucleatum; also recorded: P. gingivalis; also recorded: S. mutans | F. nucleatum (T) |  | G B | 
7 | PF-C139: peptide having multiple activities (chain 1 LLASHPERLSLGVFFVYRVLHLLLENT; chain 2 LLASHPERLSLGVFFVYRVLHLLLENT; Peptide with targeting and/or antimicrobial activity) | A. naeslundii; also recorded: F. nucleatum; also recorded: P. gingivalis; also recorded: S. mutans; also recorded: T. denticola |  | S. mutans (F) | G B | 
8 | PF-C142: peptide having multiple activities (chain 1 DFPPLSFFRRRFHAYTAPIDNFFGANPF; chain 2 DFPPLSFFRRRFHAYTAPIDNFFGANPF; Peptide with targeting and/or antimicrobial activity) | A. naeslundii; also recorded: F. nucleatum; also recorded: P. gingivalis; also recorded: S. mutans; also recorded: T. denticola |  | S. mutans (I) | G B | 
9 | PF-C143: peptide having multiple activities (chain 1 VVFGGGDRLV; chain 2 VVFGGGDRLV; Peptide with targeting and/or antimicrobial activity) | A. naeslundii; also recorded: F. nucleatum; also recorded: P. gingivalis; also recorded: S. mutans; also recorded: T. denticola | F. nucleatum (C) |  | G B | 
10 | PF-C145: peptide having multiple activities (chain 1 YGKESDP; chain 2 YGKESDP; Peptide with targeting and/or antimicrobial activity) | A. naeslundii; also recorded: F. nucleatum; also recorded: P. gingivalis; also recorded: S. mutans; also recorded: T. denticola | F. nucleatum (C) | S. mutans (I) | G B | 
11 | PF-C281: peptide having multiple activities (chain 1 KKEKLLTAIRLQHRAEIRGYFTIFFLFFRI; chain 2 KKEKLLTAIRLQHRAEIRGYFTIFFLFFRI; Peptide with targeting and/or antimicrobial activity) | A. naeslundii; also recorded: F. nucleatum; also recorded: P. gingivalis; also recorded: S. mutans; also recorded: T. denticola |  | S. mutans (F) | G B | 
12 | PF-C291: peptide having multiple activities (chain 1 HPFLTGTGCPLFLIFRLFFVKAYFSFTVF; chain 2 HPFLTGTGCPLFLIFRLFFVKAYFSFTVF; Peptide with targeting and/or antimicrobial activity) | A. naeslundii; also recorded: F. nucleatum; also recorded: P. gingivalis; also recorded: S. mutans | F. nucleatum (T) | S. mutans (F) | G B | 
13 | SIGSMIGMYSFRHKTKHIKFTFGIPFILFLQFLLVYFYILK [PF-319] | S. epidermidis; also recorded: B. subtilis; also recorded: C. difficile |  |  | G B | Organism, effect: B. subtilis (microorganisms [2]; B. subtilis): B. subtilis (C); Organism, effect: S. epidermidis (microorganisms [2]): S. epidermidis (C)
14 | VWENRKKYLENEIERHNVFLKLGQEVIKGLNALASRGR [PF-257] | S. epidermidis |  |  | G B | Organism, effect: M. luteus (microorganisms [2]): M. luteus (R)
15 | PF-C091: peptide having multiple activities (Peptide with targeting and/or antimicrobial activity) chain 1: ASNTPRFVRLTLFNFYSKIWNVTHLFLFNNL chain 2: ASNTPRFVRLTLFNFYSKIWNVTHLFLFNNL | A. naeslundii; also recorded: F. nucleatum; also recorded: P. gingivalis; also recorded: S. mutans; also recorded: T. denticola | F. nucleatum (T) |  | G B | 
16 | PF-C120: peptide having multiple activities (Peptide with targeting and/or antimicrobial activity) chain 1: ASLSTMTFKVMELKELIILLCGLTMLMIQTEFV chain 2: ASLSTMTFKVMELKELIILLCGLTMLMIQTEFV | A. naeslundii; also recorded: F. nucleatum; also recorded: P. gingivalis; also recorded: S. mutans; also recorded: T. denticola | F. nucleatum (T) |  | G B | 
17 | PF-C181: peptide having multiple activities (Peptide with targeting and/or antimicrobial activity) chain 1: KMRAGQVVFIYKLILVLLFYVLQKLFDLKKGCF chain 2: KMRAGQVVFIYKLILVLLFYVLQKLFDLKKGCF | P. gingivalis | F. nucleatum (T) |  | G B | 
18 | PF-270: peptide having multiple activities (Peptide with targeting and/or antimicrobial activity) chain 1: MYLTPYAWIAVGSIFAFSVTTIKIGDQNDEKQKSHKNDVHKR chain 2: MYLTPYAWIAVGSIFAFSVTTIKIGDQNDEKQKSHKNDVHKR | S. epidermidis; also recorded: M. luteus; also recorded: P. aeruginosa |  |  | G B | Organism, effect: M. luteus (microorganisms [2]): M. luteus (H)
19 | PF-C180: peptide having multiple activities (Peptide with targeting and/or antimicrobial activity) chain 1: TVEELDKAFTWGAAAALAIGVIAINVGLAAGYCYNNNDVF chain 2: TVEELDKAFTWGAAAALAIGVIAINVGLAAGYCYNNNDVF | F. nucleatum; also recorded: P. gingivalis; also recorded: S. mutans; also recorded: T. denticola |  | S. mutans (S) | G B | Organism, effect (microorganisms [2]; P. gingivalis): P. gingivalis (R)
20 | PF-389: peptide having multiple activities (Peptide with targeting and/or antimicrobial activity) chain 1: GLQFKEIAEEFHITTTALQQWHKDNGYPIYNKNNRK chain 2: GLQFKEIAEEFHITTTALQQWHKDNGYPIYNKNNRK | S. epidermidis and C. albicans and MRSA and S. pneumoniae and E. faecalis and C. jeikeium |  |  | G B | Organism, effect: C. jejuni (microorganisms [2]; C. jejuni): C. jejuni (R); Organism, effect: E. faecalis (microorganisms [2]; E. faecalis): E. faecalis (R); Organism, effect: MRSA (microorganisms [2]; MRSA): MRSA (C); Organism, effect: S. epidermidis (microorganisms [2]): S. epidermidis (R); Organism, effect: S. pneumoniae (microorganisms [2]; S. pneumoniae): S. pneumoniae (D)
